From patent publication US9321776B2, “Isochromene derivatives as phoshoinositide 3-kinases inhibitors” (CHIESI FARMACEUTICI S.p.A., priority 2013, dated 2016) come the findings set out here.

Structures can show the parent of a compound that is named as a salt.

T1 sequence (P48736 whole entry): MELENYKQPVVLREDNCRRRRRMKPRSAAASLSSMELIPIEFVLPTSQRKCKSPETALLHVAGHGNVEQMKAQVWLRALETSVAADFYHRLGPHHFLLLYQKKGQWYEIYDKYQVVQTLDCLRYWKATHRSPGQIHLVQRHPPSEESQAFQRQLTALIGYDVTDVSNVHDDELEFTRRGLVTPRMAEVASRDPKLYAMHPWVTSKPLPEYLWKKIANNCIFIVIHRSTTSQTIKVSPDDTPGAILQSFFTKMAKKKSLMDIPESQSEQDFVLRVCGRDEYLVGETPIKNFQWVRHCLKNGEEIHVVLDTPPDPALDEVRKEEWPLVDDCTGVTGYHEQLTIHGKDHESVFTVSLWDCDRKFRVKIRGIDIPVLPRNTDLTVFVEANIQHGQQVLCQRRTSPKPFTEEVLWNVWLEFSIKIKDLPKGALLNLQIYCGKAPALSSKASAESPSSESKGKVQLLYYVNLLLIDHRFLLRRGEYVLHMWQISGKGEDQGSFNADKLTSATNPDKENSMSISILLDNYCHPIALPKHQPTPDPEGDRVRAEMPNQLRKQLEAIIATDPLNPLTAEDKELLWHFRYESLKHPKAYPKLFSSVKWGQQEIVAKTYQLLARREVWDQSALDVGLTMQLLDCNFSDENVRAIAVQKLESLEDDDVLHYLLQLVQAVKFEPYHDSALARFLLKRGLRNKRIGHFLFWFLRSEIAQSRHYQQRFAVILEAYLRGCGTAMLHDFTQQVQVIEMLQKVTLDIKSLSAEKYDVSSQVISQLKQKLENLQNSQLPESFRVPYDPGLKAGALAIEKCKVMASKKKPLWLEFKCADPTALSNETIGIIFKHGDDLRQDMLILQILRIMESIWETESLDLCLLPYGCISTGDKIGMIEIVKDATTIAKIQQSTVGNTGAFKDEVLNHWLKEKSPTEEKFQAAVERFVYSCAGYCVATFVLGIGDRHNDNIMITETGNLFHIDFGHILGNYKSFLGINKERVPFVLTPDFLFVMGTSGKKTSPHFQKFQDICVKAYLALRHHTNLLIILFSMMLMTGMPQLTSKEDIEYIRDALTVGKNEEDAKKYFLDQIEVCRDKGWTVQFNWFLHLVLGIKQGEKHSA

One experiment concerns the target T1, PI3Kγ (Homo sapiens, UniProt P48736).
T1 construct: purchased Millipore Ltd (Billerica, Mass.)
Briefly: PI3K enzyme inhibitory activity in the cell free assay (ADP-Glo Kinase Assay). Format: biochemical. To be noted: human recombinant PI3Kγ, ATP 30 μM; read-out: PI3K gamma inhibition.
As to `CC(c1oc(=O)c2ccccc2c1C1=CCN(C)CC1)n1nc(-c2cc(O)cc(F)c2)c2c(N)ncnc21` (single isomer, unassigned) [Example 46b, 3-1-(4-amino-3-(3-fluoro-5-hydroxyphenyl)-1H-pyrazolo[3,4-d]pyrimidin-1-yl)ethyl)-4-(1-methyl-1,2,3,6-tetrahydropyridin-4-yl)-1H-isochromen-1-one hydrochloride], the IC50 is greater than 1000 nM. Same read-out and setting: the result for `CC(c1oc(=O)c2ccccc2c1-c1ccccc1)n1cnc2c(N)ncnc21` (stereo not shown) [Example 5, 3-(1-(6-Amino-9H-1-purin-9-yl)ethyl)-4-phenyl-1H-isochromen-1-one] reads 10 to 1000 nM; that for `Cc1cccc(-c2c(C(C)n3cnc4c(N)ncnc43)oc(=O)c3ccccc23)c1` (stereo not shown) [Example 6, 3-(1-(6-Amino-9H-purin-9-yl)ethyl)-4-m-tolyl-1H-isochromen-1-one], 10 to 1000 nM; that for `CC(c1oc(=O)c2ccccc2c1-c1cccc(F)c1)n1cnc2c(N)ncnc21` (stereo not shown) [Example 7, 3-(1-(6-Amino-9H-purin-9-yl)ethyl)-4-(3-fluorophenyl)-1H-isochromen-1-one], 10 to 1000 nM. Turning to `CC(c1oc(=O)c2ccccc2c1-c1ccccc1)n1nc(-c2cncc(C#N)c2)c2c(N)ncnc21` (stereo not shown) [Example 102, 5-(4-amino-1-(1-(1-oxo-4-phenyl-1H-isochromen-3-yl)ethyl)-1H-pyrazolo[3,4-d]pyrimidin-3-yl)nicotinonitrile], the IC50 is 10 to 1000 nM.

The target of the next experiment is T2, PI3Kδ (Homo sapiens, UniProt O00329).
T2 construct: purchased Millipore Ltd (Billerica, Mass.)
T2 sequence (O00329 1-1044): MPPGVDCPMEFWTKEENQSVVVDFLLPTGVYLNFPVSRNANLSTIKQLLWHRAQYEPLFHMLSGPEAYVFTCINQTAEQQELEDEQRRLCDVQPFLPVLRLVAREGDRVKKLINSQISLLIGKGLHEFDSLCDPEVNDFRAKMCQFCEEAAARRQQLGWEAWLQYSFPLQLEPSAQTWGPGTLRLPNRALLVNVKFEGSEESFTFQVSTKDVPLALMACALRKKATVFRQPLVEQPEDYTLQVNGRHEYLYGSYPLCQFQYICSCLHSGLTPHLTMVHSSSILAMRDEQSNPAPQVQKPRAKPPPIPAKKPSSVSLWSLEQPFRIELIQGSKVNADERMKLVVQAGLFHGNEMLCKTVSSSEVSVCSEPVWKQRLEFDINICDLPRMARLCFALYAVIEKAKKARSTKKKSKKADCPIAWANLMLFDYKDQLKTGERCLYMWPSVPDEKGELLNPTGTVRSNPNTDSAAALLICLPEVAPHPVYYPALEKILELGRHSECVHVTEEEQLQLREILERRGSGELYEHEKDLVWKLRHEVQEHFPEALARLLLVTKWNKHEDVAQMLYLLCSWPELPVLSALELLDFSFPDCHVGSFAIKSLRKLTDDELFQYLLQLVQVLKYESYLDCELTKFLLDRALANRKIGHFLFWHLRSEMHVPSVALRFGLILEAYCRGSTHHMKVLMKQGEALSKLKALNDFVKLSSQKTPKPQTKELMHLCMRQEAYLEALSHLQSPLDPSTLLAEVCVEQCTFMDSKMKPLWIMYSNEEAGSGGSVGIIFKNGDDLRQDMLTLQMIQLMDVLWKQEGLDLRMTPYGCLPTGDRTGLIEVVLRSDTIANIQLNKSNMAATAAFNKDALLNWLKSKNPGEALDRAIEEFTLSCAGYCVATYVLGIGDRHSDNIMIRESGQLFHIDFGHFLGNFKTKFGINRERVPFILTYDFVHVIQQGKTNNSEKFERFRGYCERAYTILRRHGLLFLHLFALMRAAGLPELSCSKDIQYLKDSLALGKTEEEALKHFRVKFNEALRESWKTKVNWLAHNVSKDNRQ
The description is as above. The experiment is classed as biochemical. To be noted: human recombinant PI3Kδ, ATP 80 μM; read-out: PI3K delta inhibition.
Turning to `CC(c1oc(=O)c2ccccc2c1C1=CCN(C)CC1)n1nc(-c2cc(O)cc(F)c2)c2c(N)ncnc21` (single isomer, unassigned) [Example 46b, 3-1-(4-amino-3-(3-fluoro-5-hydroxyphenyl)-1H-pyrazolo[3,4-d]pyrimidin-1-yl)ethyl)-4-(1-methyl-1,2,3,6-tetrahydropyridin-4-yl)-1H-isochromen-1-one hydrochloride], the IC50 is 10 to 1000 nM.

In the case of `CC(c1oc(=O)c2ccccc2c1-c1cccc(CN(C)C)c1)n1nc(-c2cc(O)cc(F)c2)c2c(N)ncnc21` (single isomer, unassigned) [Example 67b, 3-(1-(4-amino-3-(3-fluoro-5-hydroxyphenyl)-1H-pyrazolo[3,4-d]pyrimidin-1-yl)ethyl)-4-(3-((dimethylamino)methyl)phenyl)-1H-isochromen-1-one], the IC50 was 10 to 1000 nM. On to `CC(c1oc(=O)c2ccccc2c1-c1ccc(CN2CCCCC2)s1)n1nc(-c2cc(O)cc(F)c2)c2c(N)ncnc21` (single isomer, unassigned) [Example 68a, 3-(1-(4-amino-3-(3-fluoro-5-hydroxyphenyl)-1H-pyrazolo[3,4-d]pyrimidin-1-yl)ethyl)-4-(5-(piperidin-1-ylmethyl)thiophen-2-yl)-1H-isochromen-1-one hydrochloride single enantiomers], for which the IC50 fell in the range of 10 to 1000 nM.

As for `CC(c1oc(=O)c2ccccc2c1-c1ccc(CN2CCN(CCO)CC2)s1)n1nc(-c2cc(O)cc(F)c2)c2c(N)ncnc21` (single isomer, unassigned) [Example 76a, 3-(1-(4-amino-3-(3-fluoro-5-hydroxyphenyl)-1H-pyrazolo[3,4-d]pyrimidin-1-yl)ethyl)-4-(5-((4-(2-hydroxyethyl)piperazin-1-yl)methyl)thiophen-2-yl)-1H-isochromen-1-one hydrochloride], the IC50 fell in the range of 10 to 1000 nM. On the same count and under the same terms, the result for `CC(c1oc(=O)c2ccccc2c1-c1ccc(CCCN(C)C)cc1)n1nc(-c2cc(O)cc(F)c2)c2c(N)ncnc21` (single isomer, unassigned) [Example 138a, 3-(1-(4-amino-3-(3-fluoro-5-hydroxyphenyl)-1H-pyrazolo[3,4-d]pyrimidin-1-yl)ethyl)-4-(4-(3-(dimethylamino)propyl)phenyl)-1H-isochromen-1-one single enantiomers] reads greater than 1000 nM; that for `CC(c1oc(=O)c2ccccc2c1-c1ccccc1)n1cnc2c(N)ncnc21` (stereo not shown) [Example 5, 3-(1-(6-Amino-9H-1-purin-9-yl)ethyl)-4-phenyl-1H-isochromen-1-one], 10 to 1000 nM; that for `Cc1cccc(-c2c(C(C)n3cnc4c(N)ncnc43)oc(=O)c3ccccc23)c1` (stereo not shown) [Example 6, 3-(1-(6-Amino-9H-purin-9-yl)ethyl)-4-m-tolyl-1H-isochromen-1-one], 10 to 1000 nM.

In the case of `CC(c1oc(=O)c2ccccc2c1-c1cccc(F)c1)n1cnc2c(N)ncnc21` (stereo not shown) [Example 7, 3-(1-(6-Amino-9H-purin-9-yl)ethyl)-4-(3-fluorophenyl)-1H-isochromen-1-one], the IC50 lay within 10 to 1000 nM.

On to `Cc1cc(-c2c(C(C)n3ncc4c(N)ncnc43)oc(=O)c3ccccc23)ccn1` (stereo not shown) [Example 19, 3-(1-(4-Amino-1H-pyrazolo[3,4-d]pyrimidin-1-yl)ethyl)-4-(2-methylpyridin-4-yl)-1H-isochromen-1-one], for which the IC50 was in the range of 10 to 1000 nM. On the same count and under the same terms, the result for `CC(c1oc(=O)c2ccccc2c1Cc1ccccc1)n1ncc2c(N)ncnc21` (stereo not shown) [Example 20, 3-(1-(4-Amino-1H-pyrazolo[3,4-d]pyrimidin-1-yl)ethyl)-4-benzyl-1H-isochromen-1-one] reads 10 to 1000 nM; that for `CC(c1oc(=O)c2ccccc2c1-c1ccccc1)n1nc(-c2cnc(O)nc2)c2c(N)ncnc21` (stereo not shown) [Example 56, 3-(1-(4-amino-3-(2-hydroxypyrimidin-5-yl)-1H-pyrazolo[3,4-d]pyrimidin-1-yl)ethyl)-4-phenyl-1H-isochromen-1-one], 10 to 1000 nM; that for `CC(c1oc(=O)c2ccccc2c1-c1ccccc1)n1nc(-c2cncc(O)n2)c2c(N)ncnc21` (stereo not shown) [Example 90, 3-(1-(4-amino-3-(6-hydroxypyrazin-2-yl)-1H-pyrazolo[3,4-d]pyrimidin-1-yl)ethyl)-4-phenyl-1H-isochromen-1-one], 10 to 1000 nM.

On to `CC(c1oc(=O)c2ccccc2c1-c1ccccc1)n1nc(-c2cc(F)cc(Cl)c2)c2c(N)ncnc21` (stereo not shown) [Example 95, 3-(1-(4-amino-3-(3-chloro-5-fluorophenyl)-1H-pyrazolo[3,4-d]pyrimidin-1-yl)ethyl)-4-phenyl-1H-isochromen-1-one], for which the IC50 is greater than 1000 nM. Consider `CC(c1oc(=O)c2ccccc2c1-c1ccccc1)n1nc(-c2cncc(S(C)(=O)=O)c2)c2c(N)ncnc21` (stereo not shown) [Example 96, 3-(1-(4-amino-3-(5-(methylsulfonyl)pyridin-3-yl)-1H-pyrazolo[3,4-d]pyrimidin-1-yl)ethyl)-4-phenyl-1H-isochromen-1-one], for which the IC50 fell in the range of 10 to 1000 nM. The same measure, in the same setting: the result for `CC(c1oc(=O)c2ccccc2c1-c1ccccc1)n1nc(-c2cnc(O)c(F)c2)c2c(N)ncnc21` (stereo not shown) [Example 98, 3-(1-(4-amino-3-(5-fluoro-6-hydroxypyridin-3-yl)-1H-pyrazolo[3,4-d]pyrimidin-1-yl)ethyl)-4-phenyl-1H-isochromen-1-one] reads 10 to 1000 nM; that for `CC(c1oc(=O)c2ccccc2c1-c1ccccc1)n1nc(-c2cncc(C(F)(F)F)c2)c2c(N)ncnc21` (stereo not shown) [Example 100, 3-(1-(4-amino-3-(5-(trifluoromethyl)pyridin-3-yl)-1H-pyrazolo[3,4-d]pyrimidin-1-yl)ethyl)-4-phenyl-1H-isochromen-1-one], 10 to 1000 nM. Same read-out and setting: the result for `CC(c1oc(=O)c2ccccc2c1-c1ccccc1)n1nc(-c2cc(O)cc(S(F)(F)(F)(F)F)c2)c2c(N)ncnc21` (stereo not shown) [Example 101, 3-(1-(4-amino-3-(5-hydroxy-3-sulfurpentafluoride)-1H-pyrazolo[3,4-d]pyrimidin-1-yl)ethyl)-4-phenyl-1H-isochromen-1-one] reads 10 to 1000 nM; that for `CC(Nc1ncnc2sccc12)c1oc(=O)c2ccccc2c1-c1ccccc1` (stereo not shown) [Example 108, 4-phenyl-3-(1-(thieno[2,3-d]pyrimidin-4-ylamino)ethyl)-1H-isochromen-1-one], 10 to 1000 nM. The same measure, in the same setting: the result for `CC(c1oc(=O)c2ccccc2c1-c1ccccc1)n1nc(-c2ccc3[nH]nc(N)c3c2)c2c(N)ncnc21` (stereo not shown) [Example 113, 3-(1-(4-amino-3-(3-amino-1H-indazol-5-yl)-1H-pyrazolo[3,4-d]pyrimidin-1-yl)ethyl)-4-phenyl-1H-isochromen-1-one] reads 10 to 1000 nM; that for `CC(c1oc(=O)c2ccccc2c1-c1ccc(CN2CCNCC2)cc1)n1ncc2c(N)ncnc21` (stereo not shown) [Example 127, 3-(1-(4-amino-1H-pyrazolo[3,4-d]pyrimidin-1-yl)ethyl)-4-(4-(piperazin-1-ylmethyl)phenyl)-1H-isochromen-1-one hydrochloride], greater than 1000 nM.
